Columns and labels:
Assay type in all cases: in vivo
[1] = system: brown planthopper (Nilaparvata lugens); assay: Nilaparvata lugens test (NILALU hydroponic treatment); details: 100 g/ha (so in the source), active compound pipetted into water
Method: Nilanarvata lugens Test (NILALU Hydrononic Treatment)
(§1) To produce a suitable preparation of active compound, 1 part by weight of active compound is mixed with the stated amounts of solvent and emulsifier, and the concentrate is diluted with emulsifier-containing water to the desired concentration.
The preparation of active compound is pipetted into water. […] The water is then infected with the brown planthopper (Nilaparvata lugens).
After the desired period of time, the effect in % is determined. 100% means that all planthoppers have been killed; 0% means that none of the planthoppers have been killed.

[2] = system: cotton aphid (Aphis gossypii); assay: Aphis gossypii test (APHIGO G), watering; details: 4 ppm, cotton plants watered
Method: Aphis gossypii Test; (APHIGO G)
(§2) To produce a suitable preparation of active compound, 1 part by weight of active compound is mixed with the stated amounts of solvent and emulsifier, and the concentrate is diluted with water to the desired concentration.
Cotton plants (Gossypium hirsutum) which are heavily infested by the cotton aphid (Aphis gossypii) are watered with a preparation of active compound of the desired concentration.
(§3) After the desired period of time, the kill in % is determined. 100% means that all aphids have been killed; 0% means that none of the aphids have been killed.

[3] = system: cotton aphid (Aphis gossypii); assay: Aphis gossypii test (APHIGO), leaf dip; details: 100 ppm, cotton leaves dipped
Method: Aphis gossypii Test (APHIGO)
as §1
Cotton leaves (Gossypium hirsutum) which are heavily infested by the cotton aphid (Aphis gossypii) are treated by being dipped into the preparation of active compound of the desired concentration.
(§4) After the desired period of time, the kill in % is determined 100% means that all aphids have been killed; 0% means that none of the aphids have been killed.

[4] = system: green peach aphid (Myzus persicae); assay: Myzus persicae test (MYZUPE G), watering; details: 4 ppm, cabbage plants watered
Method: Myzus persicae Test; (MYZUPE G)
as §2
Cabbage plants (Brassica oleracea) which are heavily infested by the green peach aphid (Myzus persicae) are watered with a preparation of active compound of the desired concentration.
as §4

Boophilus microplus = Boophilus microplus test (BOOPMI injection); details: 20 μg/animal injected into abdomen, 100% means no tick has laid fertile eggs
Method: Boophilus microplus Test (BOOPMI Injection)
To produce a suitable preparation of active compound, 1 part by weight of active compound is mixed with the stated amount of solvent, and the concentrate is diluted with solvent to the desired concentration.
The solution of active compound is injected into the abdomen (Boophilus microplus), and the animals are transferred into dishes and kept in a temperature-controlled room.
After the desired period of time, the effect in % is determined. 100% means that no tick has laid any fertile eggs.

[5] = system: green peach aphid (Myzus persicae); assay: Myzus persicae test, hydroponic treatment (MYZUPE sys.); details: 20 ppm in water, pea plant
Method: Myzus persicae Test, Hydroponic Treatment (MYZUPE Sys.)
as §2
The preparation of active compound is mixed with water. The stated concentration refers to the amount of active compound per volume unit of water (mg/l=ppm). The treated water is filled into containers housing a pea plant (Pisum sativum) which is then infected with the green peach aphid (Myzus persicae).
as §3

Meloidogyne incognita = assay: Meloidogyne test (MELGIN spray treatment); details: 20 ppm, nematicidal activity by formation of galls on lettuce roots
Method: Meloidogyne Test (MELGIN Spray Treatment)
as §2
Containers are filled with sand, active compound solution, Meloidogyne incognita egg/larvae suspension and lettuce seeds. The lettuce seeds germinate and the plants develop. On the roots, galls are formed.
After the desired period of time, the nematicidal activity is determined by the formation of galls in %. 100% means that no galls were found; 0% means that the number of galls on the treated plants corresponds to that of the untreated controls.

[6] = system: green peach aphid (Myzus persicae); assay: Myzus test (MYZUPE spray treatment); details: 500 g/ha, spray on Chinese cabbage leaf discs
Method: Myzus Test (MYZUPE Spray Treatment)
as §1
Discs of Chinese cabbage leaves (Brassica pekinensis) which are infested by all stages of the green peach aphid (Myzus persicae) are sprayed with a preparation of active compound of the desired concentration.
After the desired period of time, the effect in % is determined 100% means that all aphids have been killed; 0% means that none of the aphids have been killed.

Lucilia cuprina larvae = assay: Lucilia cuprina test (LUCICU); details: 100 ppm, treated horse meat
Method: Lucilia cuprina Test (LUCICU)
To produce a suitable preparation of active compound, 1 part by weight of active compound is mixed with the stated amounts of solvent, and the concentrate is diluted with water to the desired concentration.
Containers containing horse meat treated with the preparation of active compound of the desired concentration are populated with Lucilia cuprina larvae.
After the desired period of time, the kill in % is determined 100% means that all larvae have been killed; 0% means that none of the larvae have been killed.

[7] = system: whitefly (Bemisia tabaci); assay: Bemisia tabaci (BEMITA spray treatment); details: 500 g/ha, spray on cotton leaf discs infested by larvae
Method: Bemisia tabaci (BEMITA Spray Treatment)
as §1
Discs of cotton leaves (Gossypium hirsutum) which are infested by larvae of the whitefly (Bemisia tabaci) are sprayed with a preparation of active compound of the desired concentration.
After the desired period of time, the effect in % is determined 100% means that all whiteflies have been killed; 0% means that none of the whiteflies have been killed.

[8] = system: adult fleas (Ctenocephalides felis); assay: Ctenocephalides felis; oral (CTECFE); details: 100 ppm in citrated cattle blood
Method: Ctenocephalides felis; Oral (CTECFE)
To produce a suitable preparation of active compound, 1 part by weight of active compound is mixed with the stated amount of solvent. Part of the concentrate is diluted with citrated cattle blood, and the desired concentration is prepared.
20 unfed adult fleas (Ctenocephalides felis) are placed into a chamber whose top and bottom ends are closed with gauze. A metal cylinder whose bottom end is closed with parafilm is placed onto the chamber. The cylinder contains the blood/active compound preparation, which can be taken up by the fleas through the parafilm membrane. The blood is warmed to 37° C., but the flea chamber is at room temperature.
After the desired period of time, the kill in % is determined 100% means that all fleas have been killed; 0% means that none of the fleas have been killed.

Compound | Kill rate in % after 7 days [1] [%] | Kill rate in % after 10 days [2] [%] | Kill rate in % after 6 days [3] [%] | Kill rate in % after 10 days [4] [%] | Kill rate in % after 7 days (Boophilus microplus) [%] | Kill rate in % after 6 days [5] [%] | Kill rate in % after 14 days (Meloidogyne incognita) [%] | Kill rate in % after 5 days [6] [%] | Kill rate in % after 2 days (Lucilia cuprina larvae) [%] | Kill rate in % after 7 days [7] [%] | Kill rate in % after 2 days [8] [%]
O=C1C=C(N(CCF)Cc2cnc(Cl)c(Cl)c2)CO1 [Example 2, 4-[[(5,6-Dichloropyridin-3-yl)methyl](2-fluoroethyl)amino]furan-2(5H)-one] | 80 | 100 | 95 | 98 | 100 | 100 | 100 | 100 | – | – | –
O=C1C=C(N(Cc2cnc(Cl)c(F)c2)CC(F)F)CO1 [Example 1, 4-[[(6-Chloro-5-fluoropyridin-3-yl)methyl](2,2-difluoroethyl)amino]furan-2(5H)-one] | – | – | – | – | – | – | – | 100 | 100 | 100 | 80
